Patent publication EP0968998A1, “Cosmetic compositions, ceramide analogues with anti-elastase activity and process for their preparation” (ELF ATOCHEM S.A., priority 1998, dated 2000)

Target: T1, élastase de leucocytes humains (Homo sapiens, UniProt P08246)
T1 construct: purchased Elastin Products Co. SE 563; host or cells: human leukocytes, as the enzyme's name says
T1 sequence (P08246 30-267): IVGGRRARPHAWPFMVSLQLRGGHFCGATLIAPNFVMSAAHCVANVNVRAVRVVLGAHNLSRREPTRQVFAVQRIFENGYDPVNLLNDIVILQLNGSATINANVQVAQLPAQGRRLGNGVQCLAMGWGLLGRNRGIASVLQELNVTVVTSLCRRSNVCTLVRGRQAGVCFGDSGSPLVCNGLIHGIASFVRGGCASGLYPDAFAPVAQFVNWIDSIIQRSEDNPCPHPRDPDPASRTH
Experiment: Anti-elastase activity: release of p-nitroaniline from N-succinyl-(Ala)3-p-nitroanilide, spectrophotometry at 410 nm
Type: biochemical
Conditions: pH 8, 37°C, pH8, 5 min preincubation, substrate 250 µM, read-out: % I (%); for inhibition at 250 µM: Concentration 250 µM; for inhibition at 500 µM: Concentration 500 µM
From the text: Les exemples qui suivent permettent d'illustrer l'invention. Dans ces exemples, on utilise les méthodes d'analyse suivantes : - Spectrographie infrarouge (IR) Les spectres sont réalisés au moyen d'un appareil PERKIN ELMER 1760 IRTF, en dispersion dans KBr à 1 %. Les valeurs sont exprimées en nombre d'onde par centimètre. - Résonance magnétique nucléaire (RMN) Les spectres sont réalisés au moyen d'un appareil BRUCKER DRX 500, à 500 MHz (^1H) et 125 MHz (^13C) dans le DMSO-d6. La calibration de l'appareil est effectuée au moyen de DMSO. Les déplacements chimiques sont exprimés en ppm. L'aspect des signaux est noté : singulet (s), doublet (d), triplet (t), quadruplet (q), multiplet (m), quintuplet (*5) et couplage AB (AB). - Mesure de l'activité anti-élastase L'activité anti-élastase est mesurée selon la méthode qui consiste à faire réagir l'élastase de leucocytes humains (référence SE 563; Elastin Products Co.; Owensville, MO, USA) avec le N-succinyl-(Ala)3-p-nitroanilide (réf. S4760; Sigma) et mesurer la libération de p-nitroaniline. On utilise le N-succinyl-(Ala)3-p-nitroanilide en solution dans le tétrahydrofurane et une solution d'élastase à 100 mg/ml dans un mélange de glycérol et de tampon acétate de sodium (50/50; v/v), pH5. L'activité de l'enzyme est mesurée à 37°C dans 100 mM de tampon Tris-HCI, pH8 contenant 0,01 % de Triton X-100 (volume/volume) et 0,02 % d'azide de sodium (poids/volume). Le céramide à tester, solubilisé dans le tétrahydrofurane (concentration en THF = 0,5 % en volume) est préincubé en présence de l'enzyme (0,05 mg/ml) dans le tampon pendant 5 minutes à 37°C. On ajoute le N-succinyl-(Ala)3-p-nitroanilide (concentration finale : 250 µM) et on mesure la libération de la p-nitroaniline dans une cuve en quartz par spectrophotométrie à 410 nm. La capacité inhibitrice du céramide est exprimée en pourcentage d'inhibition (% I) selon la relation : %I = (1 -(Vi)/(Vo))×100 [formula] dans laquelle Vi et Vo sont les vitesses d'apparition de la p-nitroaniline en présence et en absence d'inhibiteur respectivement. - Mesure de l'amélioration de la barrière cutanée a) mesure de la Perte Insensible en Eau (PIE) La mesure de la PIE permet de quantifier la très faible quantité d'eau qui diffuse passivement à travers le stratum corneum. Ce paramètre représente un très bon index de la fonction barrière du stratum corneum. Cette méthode est surtout utilisée pour contrôler l'efficacité de formules cosmétiques qui, contenant certains types de lipides sont capables de diminuer la PIE et, en conséquence, d'empêcher la déshydratation du stratum corneum. La sonde est laissée en contact de la peau pendant 2 minutes environ de façon à atteindre une position d'équilibre. PIE = D'(dP)/(dx)(gradient de pression de vapeur) [formula] Les valeurs sont exprimées en g/m^2/heure et permettent de calculer un delta de PIE = PIE (peau traitée) - PIE (peau témoin). L'appareil utilisé est un Evaporimètre EPI de Servomed. Les mesures sont effectuées sur deux groupes de 15 volontaires sains ayant une peau sèche, avant l'application du produit (t=0) et après l'application (t=0,5 heure, 1 heure, 3 heures et 6 heures) sur la face interne des deux avant-bras. L'analogue de céramide selon l'invention ou le céramide témoin est incorporé dans une crème ayant la composition suivante (en % en poids) : […]

| inhibition at 250 µM | inhibition at 500 µM | Structure (SMILES) |
| --- | --- | --- |
| 8% | 57% | CCCCCCCCCCCCCCCC(=O)NC(C)(CO)COC(=O)CCCCCCCCCCCCCCC (centres unmarked) [Exemple 2, 1-palmitoyl-2-méthyl-2-palmitoylamino-1,3-propanediol] |
| 33% | 43% | CCCCCCCCCCCCCCCC(=O)NC(CC)(CO)COC(=O)CCCCCCCCCCCCCCC (centres unmarked) [Exemple 3, 1-palmitoyl-2-éthyl-2-palmitoylamino-1,3-propanediol] |
| 81% | 100% | CCCCCCCCCCCCC/C=C/[C@@H](O)[C@H](CO)NC(=O)CCCCCCCCCCCCCCC [Référence (a), N-palmitoyl-D-érythro-1,3-dihydroxy-2-amino-4-trans octadécène, reference compound] |
| 44% | 50% | CCCCCCCCCCCCCCCCCC(=O)N[C@@H](CO)[C@H](O)[C@H](O)CCCCCCCCCCCCCC [Référence (b), N-stéaroyl-phytosphingosine, reference compound] |
